Tests used:
[1] = system: MX-1 human breast cancer cell mouse xenografts; experiment: MX-1 human breast cancer subcutaneous xenograft model; format: in vivo, Balb/c nude mice
Method: Drug A was prepared by dilution with normal saline, and drug B was prepared using 0.5% HPMC; Human breast cancer MX-1 cells were cultured as a monolayer in vitro under culture conditions of DMEM/F12 medium supplemented with 10% fetal bovine serum, 100 U/mL penicillin, and 100 µg/mL streptomycin, and cultured in a cell incubator at 37°C and 5% CO2. Routine digestion treatment and passaging were carried out twice a week using trypsin-EDTA. When the cell confluence was 80%-90% and the number of cells reached the requirement, the cells were collected, counted, and inoculated.
Balb/c nude mice, female, body weight 17-25 g, were purchased from Shanghai Bi Kai Ke Yi Biotechnology Co., Ltd.
(§1) MX-1 cells were resuspended in PBS, the density after resuspension was 100×10^6/mL, the resuspended cells were mixed with an equal volume of Matrigel, inoculated subcutaneously into the right dorsal side of each mouse, 0.1 mL was inoculated into each mouse (5×10^6 cells/animal), and when the average tumor volume grew to 100-150 mm^3, grouping was carried out (D1), and drug administration was started on the day of grouping. The mice were administered by gavage (p.o.) once daily; the mice were administered by tail vein injection (i.v.) as a single administration; the administration volume was 10 mL/kg; the vehicle group was given the same volume of "vehicle"; the specific administration doses and administration regimens are shown in Table 3-1. Tumor volume was measured, mouse body weight was weighed, and data were recorded.
(§2) The experimental indicator was to examine the effect of the drug on tumor growth, and the specific indicator was the tumor growth inhibition rate TGI (%).
(§3) The tumor diameter was measured twice a week with a vernier caliper, and the calculation formula for tumor volume (V) was:V = 1/2×a×b^2 where a, b respectively indicate length and width.
(§4) Calculation of TGI (%): When there was no tumor regression, TGI (%) = [1 - (average tumor volume of a certain treatment group at the end of administration - average tumor volume of that treatment group at grouping)/(average tumor volume of the vehicle control group at the end of treatment - average tumor volume of the vehicle control group at grouping)] × 100%. When there was tumor regression, TGI (%) = [1 - (average tumor volume of a certain treatment group at the end of administration - average tumor volume of that treatment group at grouping)/average tumor volume of that treatment group at grouping] × 100%.
(§5) At the end of the experiment, upon reaching the experimental endpoint, or when the average tumor volume reached 2000 mm^3, the animals were euthanized under CO2 anesthesia, and then dissected for tumor collection and photographing.
(§6) The experimental data were analyzed and plotted using GraphPad Prism 9.4. Based on the tumor volume data of each group at different time points, Dunnett's multiple comparisons test in Two-way ANOVA was used for statistical analysis to evaluate differences among groups. […] Table 3-1. Dosing regimen of drug A in combination with drug B in the MX-1 model

[2] = system: RL95-2 endometrial cancer cell mouse xenografts; experiment: RL95-2 human endometrial cancer subcutaneous xenograft model; format: in vivo, nude mice
Method: Drug A was prepared by dilution with normal saline, and drug B was prepared using 0.5% HPMC; Human endometrial cancer cells RL95-2 were cultured in vitro in a cell incubator at 37°C and 5% CO2. Routine digestion treatment and passaging were carried out twice a week using trypsin-EDTA. When the cell confluence was 80%-90% and the number of cells reached the requirement, the cells were collected, counted, and inoculated.
as §1, with “RL95-2” for “MX-1”, “100 × 10^6/mL,” for “100×10^6/mL,”, “(5 × 10^6” for “(5×10^6”, “and” for “and drug”, “5-1.” for “3-1.”
as §2, §3, §4, §5
as §6, with “5-1.” for “3-1.”, “RL95-2” for “MX-1”

[3] = system: human ovarian cancer OV0243; experiment: OV0243 human ovarian cancer PDX subcutaneous xenograft model; format: in vivo, BALB/c nude mice; settings: for TGI (%): D27, tumor regression formula
Method: • Drug A was prepared by dilution with normal saline, and drug B was prepared using 0.5% HPMC; • OV0243 (mild cachexia), human ovarian cancer tumor tissue, was provided by Crown Bioscience (Beijing) Inc. • BALB/c nude mice, female, body weight 16-22 g, were purchased from Jiangsu Jicui Yaokang Biotechnology Co., Ltd.
OV0243 human ovarian cancer tissue was uniformly cut into tumor pieces with a diameter of 2-3 mm and inoculated subcutaneously at the right front scapular region of BALB/c nude mice, and tumor growth was regularly observed. When the average tumor volume reached 100-150 mm^3, random grouping was performed based on the tumor size and mouse body weight in accordance with Table 4-1. The tumor diameter was measured twice a week with a vernier caliper, and the calculation formula for tumor volume (V) was:V = 1/2×a×b^2 where a, b respectively indicate length and width.
as §2, §4, §5
The experimental data were analyzed and plotted using GraphPad Prism 9.4. Based on the tumor volume data of each group at different time points, Dunnett's multiple comparisons test in Two-way ANOVA was used for statistical analysis to evaluate differences among groups.
The invivoSyn method was used to analyze the synergistic effect of the combination treatment. First, based on the exponential growth model, the tumor growth rate of each mouse (eGR, exponential growth rate) and the average tumor growth rate of each group (eGRg) were calculated. Then, the relative survival rate of the treatment group and the control group was calculated by using the conditional probability formula Pr(T|C)=ST/SC, wherein SA, SB, and SAB are respectively defined as the relative survival rates of single-drug group A, single-drug group B, and the combination administration group at time point t. SA = (exp(eGRA*t))/(exp(eGRC*t)) [formula] SB = (exp(eGRB*t))/(exp(eGRC*t)) [formula] SAB = (exp(eGRAB*t))/(exp(eGRC*t)) [formula]
Based on the highest single-drug effect model (HSA, Highest Single Agent), the expected survival rate E(SAB) of the combination administration group was calculated. For the HSA model, E(SAB) = min(SA, SB). CI (Combination Index) is defined as the ratio of the observed survival rate SAB of the combination administration group to E(SAB), while the synergistic effect score (SS, Synergy Score) is defined as the percentage difference between E(SAB) and SAB. When the CI value is less than 1 or the SS value is greater than 0, the combination is considered to have a synergistic effect. p values and confidence intervals were calculated using the stratified bootstrap method (Stratified bootstrap). Table 4-1. Dosing regimen of drug A in combination with drug B in the OV0243 model

HEC-1A cells = experiment: CTG growth inhibition, drug A/drug B cross-combination, 6 days; format: cell-based, human; settings: Drug B alone, 4.12-1000.00 nM
Method: (§7) Tumor cells in good growth condition were seeded into 96-well plates. After overnight growth onto the wall, different concentrations of the test substances were administered, with different concentrations of the two test substances arranged in a cross-combination design.
(§8) The starting concentration of test drug A was 1000 nM, which was subjected to 1:3 serial dilution to generate a total of 6 concentration levels; the starting concentration of test drug B was set at 1000 nM, which was subjected to 1:3 serial dilution to generate a total of 6 concentration levels. After the combined test substances had acted on each cell line for 6 days, the CTG method was used to detect the in vitro proliferation inhibitory effect of the combined use of the test drugs on tumor cells. Table 2-1 Drug A and drug B treatment dosing scheme
(§9) Based on the signal values measured by the microplate reader, the cell growth inhibition rate was calculated according to the following formula: Growth inhibition rate % (growth inhibition%) = [1-(measured value-minimum value mean-background value)/(maximum value mean-background value-minimum value mean)] ×100% (measured value: reading value of compound wells; minimum value: reading value of ZPE wells (reading value of wells containing cell culture medium without cells); maximum value: reading value of HPE wells (cell reading value of the DMSO treatment group); background value: cell background measured value before addition of the compound).

COV362 cells = experiment: as above; format: cell-based, human; settings: Drug B alone, 4.12-1000.00 nM
Method: as §7, §8, §9

EN cells = experiment: as above; format: cell-based, human; settings: Drug B alone, 4.12-1000.00 nM
Method: as §7, §8, §9

SK-OV-3 cells = experiment: as above; format: cell-based, human; settings: Drug B alone, 4.12-1000.00 nM
Method: as §7, §8, §9

OAW42 cells = experiment: as above; format: cell-based, human; settings: Drug B alone, 4.12-1000.00 nM
Method: as §7, §8, §9

CAL-51 cells = experiment: as above; format: cell-based, human; settings: Drug B alone, 4.12-1000.00 nM
Method: as §7, §8, §9

MX-1 cells = experiment: as above; format: cell-based, human; settings: Drug B alone, 4.12-1000.00 nM
Method: as §7, §8, §9

[4] = D0 (at grouping), Drug B 1 mg/kg p.o. QD*28 times
[5] = D28, Drug B 1 mg/kg p.o. QD*28 times

CCc1cc2ncc(CN3CC=C(c4ccc(C(=O)NC)nc4)CC3)cc2[nH]c1=O [Drug B, 1'-((7-ethyl-6-oxo-5,6-dihydro-1,5-naphthyridin-3-yl)methyl)-N-methyl-1',2',3',6'-tetrahydro-[3,4'-bipyridine]-6-carboxamide]
Average tumor volume (mm^3) ± SEM ([1]; D0 (at grouping), Drug B 0.3 mg/kg): 148±7 mm^3
Average tumor volume (mm^3) ± SEM ([1]; D28, Drug B 0.3 mg/kg): 199±20 mm^3
TGI (%) ([1]; D28, Drug B 0.3 mg/kg): 97.25%
Partial regression ([1]; D28, Drug B 0.3 mg/kg, animals with partial regression/animals in group): 2/8
tolerability (body weight, death, abnormal symptoms) ([1]; MX-1 tumor-bearing mice): could well tolerate
Average tumor volume (mm^3) + SEM [2, 4]: 134+7 mm^3
Average tumor volume (mm^3) + SEM [2, 5]: 1097+109 mm^3
T/C (%) [2, 5]: 95.50%
TGI (%) [2, 5]: 5.08%
tolerability ([2]; RL95-2 tumor-bearing mice): could well tolerate
tumor growth inhibition ([2]; RL95-2 xenograft mouse model): had no obvious inhibitory effect on tumor growth
Average tumor volume (mm^3) ± SEM ([3]; D0 (at grouping), Drug B 0.1 mg/kg p.o. QD*28 times): 137±2 mm^3
Average tumor volume (mm^3) ± SEM [3, 4]: 138±2 mm^3
TGI (%) ([3]; Drug B 0.1 mg/kg p.o. QD*28 times): 129.84%
TGI (%) ([3]; Drug B 1 mg/kg p.o. QD*28 times): 191.94%
Average tumor volume (mm^3) ± SEM ([3]; Day 27, Drug B 0.1 mg/kg p.o. QD*28 times): 96±14 mm^3
Average tumor volume (mm^3) ± SEM ([3]; Day 27, Drug B 1 mg/kg p.o. QD*28 times): 11±6 mm^3
Average tumor volume (mm^3) ± SEM ([3]; Day 55, Drug B 0.1 mg/kg p.o. QD*28 times): 3±3 mm^3
Average tumor volume (mm^3) ± SEM ([3]; Day 55, Drug B 1 mg/kg p.o. QD*28 times): 0±0 mm^3
Average tumor volume (mm^3) ± SEM ([3]; Day 83 (day 56 after drug withdrawal), Drug B 0.1 mg/kg p.o. QD*28 times): 78±27 mm^3
Average tumor volume (mm^3) ± SEM ([3]; Day 83 (day 56 after drug withdrawal), Drug B 1 mg/kg p.o. QD*28 times): 50±23 mm^3
tumor growth inhibition, monotherapy ([3]; OV0243 model, conclusion): significantly inhibit the growth of xenograft tumors in nude mice
tolerability ([3]; OV0243 tumor-bearing mice): could well tolerate
body weight decrease of 1 animal ([3]; drug B 0.1 mg/kg, by day 51, euthanasia): greater than 20%
body weight decrease of 1 animal ([3]; drug B 0.1 mg/kg, day 23): 17.39%
animals with partial tumor regression ([3]; drug B 0.1 mg/kg, day 27): 5/6
average body weight change rate ([3]; drug B 0.1 mg/kg, day 27): 2.18%
animals with complete tumor regression ([3]; drug B 1 mg/kg, day 27): 3/6
animals with partial tumor regression ([3]; drug B 1 mg/kg, day 27): 3/6
average body weight change rate ([3]; drug B 1 mg/kg, day 27): 3.75%
Growth inhibition rate (HEC-1A cells; drug B 4.12 nM): 3.73%
Growth inhibition rate (HEC-1A cells; drug B 12.35 nM): 4.25%
Growth inhibition rate (HEC-1A cells; drug B 37.04 nM): 5.84%
Growth inhibition rate (HEC-1A cells; drug B 111.11 nM): 9.01%
Growth inhibition rate (HEC-1A cells; drug B 333.33 nM): 7.40%
Growth inhibition rate (COV362 cells; drug B 4.12 nM): 22.59%
Growth inhibition rate (COV362 cells; drug B 12.35 nM): 22.45%
Growth inhibition rate (COV362 cells; drug B 37.04 nM): 21.18%
Growth inhibition rate (COV362 cells; drug B 111.11 nM): 25.95%
Growth inhibition rate (COV362 cells; drug B 333.33 nM): 23.74%
Growth inhibition rate (EN cells; drug B 4.12 nM): 31.13%
Growth inhibition rate (EN cells; drug B 12.35 nM): 22.59%
Growth inhibition rate (EN cells; drug B 37.04 nM): 24.15%
Growth inhibition rate (EN cells; drug B 111.11 nM): 27.18%
Growth inhibition rate (EN cells; drug B 333.33 nM): 24.54%
Growth inhibition rate (SK-OV-3 cells; drug B 4.12 nM): 3.96%
Growth inhibition rate (SK-OV-3 cells; drug B 12.35 nM): 2.49%
Growth inhibition rate (SK-OV-3 cells; drug B 37.04 nM): 2.34%
Growth inhibition rate (SK-OV-3 cells; drug B 111.11 nM): 6.14%
Growth inhibition rate (SK-OV-3 cells; drug B 333.33 nM): 9.22%
Growth inhibition rate (OAW42 cells; drug B 4.12 nM): 6.29%
Growth inhibition rate (OAW42 cells; drug B 12.35 nM): 4.07%
Growth inhibition rate (OAW42 cells; drug B 37.04 nM): 6.30%
Growth inhibition rate (OAW42 cells; drug B 111.11 nM): 7.53%
Growth inhibition rate (OAW42 cells; drug B 333.33 nM): 12.46%
Growth inhibition rate (CAL-51 cells; drug B 4.12 nM): 9.89%
Growth inhibition rate (CAL-51 cells; drug B 12.35 nM): 8.42%
Growth inhibition rate (CAL-51 cells; drug B 37.04 nM): 12.34%
Growth inhibition rate (CAL-51 cells; drug B 111.11 nM): 11.19%
Growth inhibition rate (CAL-51 cells; drug B 333.33 nM): 15.02%
Growth inhibition rate (MX-1 cells; drug B 4.12 nM): 33.15%
Growth inhibition rate (MX-1 cells; drug B 12.35 nM): 31.24%
Growth inhibition rate (MX-1 cells; drug B 37.04 nM): 33.85%
Growth inhibition rate (MX-1 cells; drug B 111.11 nM): 40.59%
Growth inhibition rate (MX-1 cells; drug B 333.33 nM): 46.92%

Reference: patent publication EP4810065A1, “COMBINED USE OF ANTIBODY-DRUG CONJUGATE AND POLY(ADENOSINE D[…]) POLYMERASE INHIBITOR” (Jiangsu Hansoh Pharmaceutical Group Co., Ltd., priority 2023, dated 2025)
